As a reminder, the melting point is the temperature of the solid-liquid transition.

As for `Cc1ccc(S(=O)(=O)N2CCOCC2)cc1N`, the melting point was 127 to 135 °C. In the case of `Nc1sc2c(c1C(=O)O)CCSC2` it was 169 to 171 °C; in that of `O=C(O)c1cc(-c2ccccc2)ccc1Cl`, 199 to 201 °C. In the case of `Nc1nc(-c2ccc([N+](=O)[O-])cc2)no1` it was 294 to 296 °C. In the case of `CC1CCN(S(=O)(=O)N2CCNCC2)CC1` it was 61 to 63 °C. `O=C(CC1CCCCC1)Nc1cccc2c1CCCN2` yielded a melting point of 192 to 194 °C.

As for `COC(=O)C(NS(C)(=O)=O)C(C)C` (stereo not given), the melting point lay within 46 to 48 °C. `Cc1nn(C)c(C)c1NC(=O)CCl` gave a melting point of 107 to 109 °C. As for `Nc1ccc(Cl)c(-n2nnnc2C2CC2)c1`, the melting point lay in the range of 135 to 137 °C. The figure for `Cc1cc(-c2csc(N)n2)c(C)n1CC1CCCO1` (stereo not given) is 112 to 116 °C; for `OCc1nc(-c2ccco2)no1` it is 123 to 125 °C; for `O=c1[nH]c2ccc(NCc3cccc(Cl)c3)cc2[nH]1` it is 217 to 219 °C. `CC(C)CCNC(=O)CC(=O)NCCC(C)C` gave a melting point of 69 to 71 °C. Compound `CCOc1c(Br)cc(C(=O)O)cc1OC` displayed a melting point of 140 to 142 °C.

Compound `CC1CC1c1ccc(C(=O)O)o1` (stereo not given) yielded a melting point of 55 to 57 °C. The figure for `O=C(O)C1CCN(C(=O)NCc2ccco2)CC1` is 138 to 140 °C; for `CCOC(=O)c1sc2nc(N3CCOCC3)[nH]c(=O)c2c1C` it is 296 to 298 °C. In the case of `CCOC(C)c1nc(CC(=O)O)cs1` (stereo not given) it was 91 to 93 °C.

On to `O=C1CC2(CCSC2)C(=O)N1` (stereo not given), for which the melting point is 135 to 137 °C. In the case of `Cc1ccc(S(=O)(=O)N2CCC(C(=O)O)CC2)cc1` it was 181 to 183 °C; in that of `CN(C)c1ccc2cc(N)ccc2n1`, 84 to 86 °C. On to `NS(=O)(=O)NCc1ccccc1`, for which the melting point is 107 to 109 °C. The figure for `O=C(CSc1ccccc1C(=O)O)NC1CCCCCCC1` is 168 to 170 °C. The figure for `CC(C)Oc1ccc(S(=O)(=O)N2CCCCC2)cc1NC(=O)CCl` is 270 to 272 °C. On to `O=S(=O)(Cl)c1ccc2c(Cl)ccc(Cl)c2c1`, for which the melting point fell in the range of 127 to 129 °C. `Cc1cccc(-c2nc(C)n[nH]2)c1` came in with a melting point of 140 to 142 °C.

For `O=C1COc2cc(Br)c(Cl)cc2N1`, the melting point is 281 to 283 °C. In the case of `N#Cc1ccc(CN2CCNCC2)cc1` it was 214 to 216 °C; in that of `CC(NC(=O)c1cc(-c2ccccc2)on1)C(=O)O` (stereo not given), 164 to 166 °C. Take `COc1ccc(Cc2nc3sc4c(c3c(=O)[nH]2)CCC4)cc1OC`: the melting point fell in the range of 237 to 239 °C. The figure for `CCCCS(=O)(=O)Nc1ccc(S(=O)(=O)Cl)cc1` is 123 to 125 °C. In the case of `CC(CC(=O)O)NC1=NS(=O)(=O)c2ccccc21` (stereo not given) it was 245 to 247 °C; in that of `COc1ccccc1NS(=O)(=O)c1cc(N)ccc1N1CCCCC1`, 169 to 171 °C; in that of `Cc1cc(CC(=O)O)n[nH]1`, 116 to 118 °C. On to `COCCNS(=O)(=O)c1ccc(C(=O)O)cc1`, for which the melting point was in the range of 254 to 256 °C. The compound `Nc1ccc(N2CCCC2)nc1` displayed a melting point of 83 to 85 °C. The figure for `Cc1cc(C(=O)CCl)c(C)[nH]1` is 143 to 145 °C; for `O=C(CC(=O)NCC1CCCO1)NCC1CCCO1` (stereo not given) it is 77 to 79 °C; for `c1ccc2c(c1)CNc1ccccc1-2` it is 120 to 122 °C. The figure for `O=C(O)c1ccc(S(=O)(=O)NCc2cccs2)cc1` is 232 to 234 °C.

For the compound `N#CCCC(=O)c1ccco1`, the melting point lay in the range of 80 to 84 °C.

The compound `O=C(O)c1c2c(nc3ccccc13)C(=Cc1ccccc1)CC2` gave a melting point of 279 to 281 °C.

`NS(=O)(=O)c1ccc(F)c2ncccc12` displayed a melting point of 256 to 258 °C. The figure for `Nc1ccc(Oc2ccnc3ccccc23)c(F)c1` is 158 to 160 °C; for `O=c1[nH]c(-c2ccccn2)nc2c1CCC2` it is 178 to 180 °C; for `O=C(O)C=Cc1cc(Br)ccc1OC(F)F` it is 155 to 157 °C.

Compound `NC(=O)c1cc(-c2cccs2)on1` gave a melting point of 190 to 192 °C.

The compound `CNC(=O)c1cccc(N)n1` registered a melting point of 102 to 104 °C. The figure for `CC(C)c1ccc(CCC(=O)O)cc1` is 71 to 73 °C; for `Nc1ccc(CC2NC(=O)NC2=O)cc1` (stereo not given) it is 152 to 154 °C; for `O=C1CCS(=O)(=O)CC1` it is 167 to 169 °C.

Take `CC(C)C(NC(=O)c1ccc([N+](=O)[O-])cc1Cl)C(=O)O` (stereo not given): the melting point lay in the range of 145 to 147 °C. The figure for `Cc1cc(C(=O)CCl)c(C)n1-c1ccc2c(c1)OCCO2` is 99 to 103 °C; for `CCOC(=O)c1c(C)n(C2CCCC2)c2ccc(O)cc12` it is 228 to 230 °C; for `O=C(O)c1cc(S(=O)(=O)Nc2ccc(F)cc2)ccc1Cl` it is 205 to 207 °C. In the case of `CC(C)(C)OC(=O)N1CCC(OCC(F)(F)F)(C(=O)O)CC1` it was 259 to 261 °C.

In turn, `COCCN(CC(=O)O)C(=O)OC(C)(C)C` returned a melting point of 76 to 78 °C. Consider `NNC(=O)C(=O)NC1CC1`, for which the melting point is 181 to 183 °C. The figure for `Cc1nccc(CN)n1` is 8 to 10 °C; for `Nc1nnc(C=Cc2ccco2)s1` it is 218 to 220 °C; for `Nc1ccccc1CN1C(=O)CCC1=O` it is 108 to 110 °C.

`Cc1[nH]n(C(N)=S)c(=O)c1CCO`: the melting point lay in the range of 153 to 155 °C. In the case of `O=C(O)c1ccccc1NC(=O)C(F)(F)F` it was 167 to 169 °C; in that of `Nc1ccc(C(=O)NC2CC2)c(Cl)c1`, 158 to 160 °C. In the case of `N#CCN1CCc2ccc(N)cc21` it was 87 to 89 °C; in that of `NS(=O)(=O)C1CCOC1` (stereo not given), 85 to 87 °C.

On to `CCN(CC)S(=O)(=O)c1ccc(Cl)c([N+](=O)[O-])c1`, for which the melting point lay in the range of 88 to 91 °C. The figure for `COc1ccc2cc(C(=O)CBr)ccc2c1` is 108 to 110 °C.

Take `Cc1cc(C#N)c(N)s1`: the melting point lay within 100 to 102 °C. The figure for `CC(=O)c1oc2ccccc2c1N` is 154 to 156 °C. In the case of `COc1cccc(C(N)CC(=O)O)c1OC` (stereo not given) it was 206 to 208 °C; in that of `NS(=O)(=O)c1ccc(CCNS(=O)(=O)c2cccc(C(=O)O)c2)cc1`, 226 to 228 °C; in that of `O=C(O)CCCn1cncn1`, 140 to 142 °C.

Take `O=[N+]([O-])c1ccc(-c2cn[nH]c2)cc1`: the melting point was in the range of 205 to 207 °C. The figure for `Cc1cc(O)nc(-c2ccc(-c3ccccc3)cc2)n1` is 275 to 277 °C; for `Cc1cc(C)cc(C(=O)/C=C2\NC(=O)CS2)c1` it is 163 to 165 °C; for `Cc1cc(C)c(S(=O)(=O)N2CCCC2C(=O)O)c(C)c1` (stereo not given) it is 84 to 86 °C. In turn, `CCN(CC)S(=O)(=O)c1ccc(N2CCCC2)c(C(=O)O)c1` had a melting point of 141 to 144 °C.

`N#CC(C#N)=C1Nc2ccccc2N=C1Cl` had a melting point of 264 to 266 °C. The compound `Cc1cc(C)nc(SCC(=O)NN)n1` had a melting point of 119 to 121 °C. In the case of `O=C(O)C1=CCCSC1` it was 103 to 105 °C; in that of `CN1C(=O)C(C(N)=O)=C(N)C12CCCC2`, 255 to 257 °C; in that of `O=C(O)CCc1nc(Cc2ccccc2)no1`, 66 to 68 °C. Regarding `CCc1cccc2c(C3=CCNCC3)c[nH]c12`, the melting point was 190 to 192 °C. The figure for `O=[N+]([O-])c1sccc1Br` is 80 to 82 °C; for `O=C(O)c1cc([N+](=O)[O-])c(F)cc1Br` it is 171 to 173 °C. The figure for `O=C(O)CCc1nc2ccccc2[nH]1` is 229 to 231 °C; for `COc1ccc(C#N)cc1CBr` it is 123 to 125 °C; for `CC1CCC(C(=O)O)C2C(=O)N(c3ccccc3)C(=O)C12` (stereo not given) it is 182 to 184 °C.

For the compound `O=C(O)CCCCCCNC(=O)OCc1ccccc1`, the melting point fell in the range of 89 to 91 °C. Compound `Cc1c(Cl)ccc(C(=O)O)c1N` gave a melting point of 208 to 210 °C. In the case of `Cc1ccc(S(=O)(=O)NC(C(=O)O)C(C)C)cc1` (stereo not given) it was 167 to 169 °C.

Turning to `O=C(O)CCCCOc1ccc(Oc2ccccc2)cc1`, the melting point lay within 53 to 55 °C.

With `O=C(O)c1ccc(N2CCCS2(=O)=O)cc1Cl`, the melting point is 226 to 228 °C. In the case of `Cc1cccc(C(C)C(=O)O)c1` (stereo not given) it was 61 to 63 °C. The figure for `Cc1nc2sccn2c1CO` is 180 to 182 °C; for `COc1ccc(-c2nc(N)sc2C)cc1OC` it is 185 to 187 °C. The figure for `O=C1CCCc2cc[nH]c21` is 94 to 96 °C; for `NC(=S)Cc1nc2ccccc2s1` it is 173 to 175 °C.

Compound `Cn1cnc(S(=O)(=O)Cl)c1Cl` showed a melting point of 54 to 56 °C. In the case of `O=C(O)CNC(=O)c1cccc(O)c1` it was 174 to 176 °C; in that of `CC(O)(Cc1ccccc1)C(=O)O` (stereo not given), 90 to 92 °C; in that of `Cc1n[nH]c(C2CNCCO2)n1` (stereo not given), 104 to 106 °C. In turn, `O=C(CCl)NCCc1c[nH]c2ccccc12` came in with a melting point of 82 to 84 °C.

`N#Cc1cn(-c2ccc([N+](=O)[O-])cc2)nc1N` came in with a melting point of 278 to 280 °C.

Consider `Cc1sc(N)nc1-c1cccc([N+](=O)[O-])c1`, for which the melting point was 175 to 177 °C. Compound `Cc1cc(C(=O)CCl)c(C)n1CC(F)(F)F` yielded a melting point of 143 to 145 °C. `O=C1CSC(=S)N1c1cccnc1` came in with a melting point of 159 to 161 °C.

In the case of `O=S(=O)(Cl)c1cc(Br)ccc1F`, the melting point lay within 68 to 70 °C.

Take `O=C(O)c1cc(Cl)c[nH]1`: the melting point was in the range of 182 to 184 °C. In the case of `O=C(O)COc1cc(Cl)cc(Cl)c1` it was 115 to 117 °C. In the case of `O=C(NC1CC1)c1cc(S)nc2ccccc12` it was 301 to 303 °C; in that of `CCOC(=O)c1noc(-c2cccc(F)c2-n2ccnc2)n1`, 128 to 130 °C. In the case of `Cc1ccc(-n2c(C)c[nH]c2=O)cc1` it was 195 to 197 °C; in that of `Cc1ccc(C)c(SCC(=O)O)c1`, 73 to 75 °C; in that of `O=C(O)c1ccn(-c2cccc(C(F)(F)F)c2)n1`, 155 to 157 °C. `CNc1ccnc2ccncc12` registered a melting point of 223 to 225 °C. The compound `CC(C)c1nnc(N)[nH]1` yielded a melting point of 108 to 110 °C. Take `N#CCc1cccc(C(=O)O)c1`: the melting point lay in the range of 166 to 168 °C. The figure for `Brc1cn2ccnc2c(Br)n1` is 152 to 154 °C.

These data come from a melting point compilation (Tetko et al.).
